Like-named read-outs stand apart in the source and are kept apart here.
Key:
[1] = test system: bile acid sulfate sulfatase; assay: Activity of the present Enzyme on substrates (coupled β-hydroxysteroid dehydrogenase/NADH assay, absorbance at 340 nm); type: biochemical, Pseudomonas testosteroni; settings: for Relative activity (substrate specificity): lithocholic acid 3α-sulfate = 100
Description: (§1) The physicochemical properties of the present Enzyme are further described below. The activity of the present Enzyme is measured as follows. That is, into a quartz cell are placed 0.1 ml of 2.5 mM aqueous solution of lithocholic acid 3α-sulfate (Sigma), 0.2 ml of 15 mM aqueous solution of β-NAD (Oriental Yeast), 1.0 ml of 0.1M tris-hydrochloric acid buffer solution (pH 8.0) and 1.55 ml of distilled water, and after equilibrating at 30° C., 0.05 ml of β-hydroxysteroid dehydrogenase (Sigma) solution (10 U/ml) and 0.1 ml of a solution of the present Enzyme are sequentially added thereto and the reaction is effected at 30° C., and the increase of the absorbance at 340 nm in the initial stage of the reaction is determined. Under these conditions, the enzyme activity producing 1 μmol of NADH per minute is defined as 1 unit.
(b) Substrate specificity: Acting on 3α-sulfates of nonconjugated bile acids, and 3α-sulfates each of glycine-conjugated and taurine-conjugated bile acids.

[2] = test system: bile acid sulfate sulfatase; assay: Inhibition and activation of the present Enzyme by additives; type: biochemical, Pseudomonas testosteroni
Description: as §1

[3] = additive 2 mM, no additive = 100
[4] = effect of the substance on the present Enzyme
[5] = additive 1 mM, no additive = 100

| Molecule | Relative activity (substrate specificity) [1] | Relative Activity [2, 3] | also measured |
| --- | --- | --- | --- |
| C[C@H](CCC(=O)O)[C@H]1CC[C@H]2[C@@H]3CC[C@@H]4C[C@H](OS(=O)(=O)O)CC[C@]4(C)[C@H]3CC[C@]12C [Lithocholic acid 3α-sulfate] | 100% |  | Km ([1]; Km of the present Enzyme to the substrate): 6 µM |
| [Cl][Co][Cl] [Cobalt chloride] |  | 92% |  |
| [N-]=[N+]=[N-] [Sodium azide] |  |  | Relative Activity ([2]; additive 10 mM, no additive = 100): 100% |
| C[C@H](CCC(=O)O)[C@H]1CC[C@H]2[C@@H]3[C@H](O)C[C@@H]4C[C@H](OS(=O)(=O)O)CC[C@]4(C)[C@H]3C[C@H](O)[C@]12C [Cholic acid 3α-sulfate] | 238% |  |  |
| [Cl][Mn][Cl] [Manganese chloride] |  | 111% | Inhibition and activation (in words) [2, 4]: Activated |
| O=S(=O)([O-])[O-].[Zn+2] [Zinc sulfate] |  | 95% |  |
| c1cnc2c(c1)ccc1cccnc12 [o-Phenanthroline] |  |  | Relative Activity [2, 5]: 37%; Inhibition and activation (in words) [2, 4]: inhibited |
| O=C(O)CN(CCN(CC(=O)O)CC(=O)O)CC(=O)O [EDTA] |  |  | Relative Activity [2, 5]: 38%; Relative Activity ([2]; additive 5 mM, no additive = 100): 25%; Inhibition and activation (in words) [2, 4]: inhibited |
| [Cl][Cd][Cl] [Cadmium chloride] |  | 98% |  |
| 4-Nitrocatechol sulfate | 0% |  |  |
| [Cl][Hg][Cl] [Mercuric chloride] |  | 71% | Relative Activity [2, 5]: 90% |
| O=C(O)c1cc[c]([Hg][Cl])cc1 [p-Chloromercuribenzoate] |  |  | Relative Activity ([2]; additive 0.2 mM, no additive = 100): 98%; Inhibition and activation (in words) [2, 4]: Hardly inhibited |
| O=C(O)CI [Monoiodoacetic acid] |  |  | Inhibition and activation (in words) [2]: Hardly inhibited; Relative Activity ([2]; 2000 µM): 98% |
| O=S(=O)([O-])[O-].[Cu+2] [Copper sulfate] |  | 94% |  |
| C[C@H](CCC(=O)O)[C@H]1CC[C@H]2[C@@H]3CC=C4C[C@@H](OS(=O)(=O)O)CC[C@]4(C)[C@H]3CC[C@]12C [3β-Hydroxy-5-cholenic acid 3-sulfate] | 0% |  |  |
| C[C@H](CCC(=O)NCC(=O)O)[C@H]1CC[C@H]2[C@@H]3CC[C@@H]4C[C@H](OS(=O)(=O)O)CC[C@]4(C)[C@H]3CC[C@]12C [Glycolithocholic acid 3α-sulfate] | 11% |  |  |
| O=S(=O)([O-])[O-].[Mg+2] [Magnesium sulfate] |  | 101% |  |
| [F-].[Na+] [Sodium fluoride] |  | 98% |  |
| c1ccc(-c2ccccn2)nc1 [α,α'-Dipyridyl] |  |  | Relative Activity [2, 5]: 97% |
| C[C@H](CCC(=O)NCCS(=O)(=O)O)[C@H]1CC[C@H]2[C@@H]3CC[C@@H]4C[C@H](OS(=O)(=O)O)CC[C@]4(C)[C@H]3CC[C@]12C [Taurolithocholic acid 3α-sulfate] | 2% |  |  |
